Measured values taken from patent publication US12389905B2, “Synergistic mixture of plant defense inductors” (LIDA PLANT RESEARCH S.L., priority 2018, dated 2025).
Several values for one entry are separate records, joined by “and”; a condition that tells them apart may be missing. Identical values can stand only once. Like-named read-outs stand apart in the source and are kept apart here.

What was measured:
Type in all cases: in vivo
[1] = test system: PR1 (PATHOGENESIS-RELATED PROTEIN 1) gene; assay: PR1 gene expression (qPCR) in sprayed Arabidopsis thaliana plants
[2] = test system: PDF1.2 (PLANT DEFENSIN 1.2) gene; assay: PDF1.2 gene expression (qPCR) in sprayed Arabidopsis thaliana plants
Procedure: Wild-type Arabidopsis thaliana Col-0 seeds were grown in pots under a 16 hours day/8 hours night (long day) photoperiod, with a daytime temperature of 22° C., a night temperature of 20° C., and a relative humidity of 65%. Plants were sprayed with each inductor dissolved in water (inductors alone or in combination). 24 and 48 hours after treatment (hours post treatment, hpt), tissue samples were harvested and gene expression analysis of specific defense marker genes was performed, through quantitative PCR technology (qPCR).
The genes involved in plant defense analyzed were one or more of the following 5: • PR1 (PATHOGENESIS-RELATED PROTEIN 1). AGI code: AT2G14610 • PDF1.2 (PLANT DEFENSIN 1.2). AGI code: AT5G44420 • PR2 (PATHOGENESIS-RELATED PROTEIN 2; BETA-1,3-GLUCANASE 2). AGI code: AT3G57260 • PR5 (PATHOGENESIS-RELATED GENE 5). AGI code: AT1G75040 • ICS1 (ISO[…] 1). AGI code: AT1G74710
UBC21 (UBIQUITIN-CONJUGATING ENZYME 21; AGI code: AT5G25760) was the normalization (or housekeeping) gene used.
PR1 (Salicylic acid-signaling pathway marker gene) and PDF1.2 (Jasmonic acid-signaling pathway marker gene) are important marker genes of plant defense system, because they are necessary to plant defense mechanisms activation.
In order to evaluate if there is a synergistic effect between different possible combinations, Limpel/Colby's formula was used. This formula is used to calculated the expected activity of combinations containing two active ingredients, A and B: Expected (E)=A+B−(A×B/100) Wherein, • A=observed gene activation of active component A at the same concentration as used in the mixture • B=observed gene activation of active component B at the same concentration as used in the mixture
When the activity found experimentally (observed) is greater than the value of E, said activity should be considered as being a synergistic effect, and Synergy Factor (F) is >1: Synergy Factor (F)=Observed activity/Expected activity (E)
In the following: • OV: Observed gene activation value • CEV: Colby expected gene activation value with the mixture [CEV=A+B−(A×B/100)] Synergy Factor (F)=OV(A+B)/CEV(A+B) • hpt: hours post treatment.

[3] = test system: Podosphaera xanthii on cucumber; assay: Powdery mildew on cucumber, greenhouse disease control
Procedure: (§1) The experiments were carried out under controlled greenhouse conditions. The effects of temperature, humidity and light conditions in the greenhouse chambers were adjusted according to host plants and pathogens needs.
(§2) The efficacy or disease control value (W) was calculated according to Abbott's formula: W=(1−x/y)×100 wherein • x=percentage of fungal or bacterial infection in treated plants • y=percentage of fungal or bacterial infection in untreated control plants
(§3) An efficacy of 0 means the infection level of the treated plants corresponds to that of the untreated control plants; and efficacy of 100 means that the treated plants are not infected.
(§4) In order to evaluate if there is a synergistic effect between different possible combinations, Limpel/Colby's formula was used.
(§5) Synergy Factor (F)=OV(A+B)/CEV(A+B) 1. Podosphaera xanthii on Cucumber
1.2-leaf stage cucumber plants (cv. Suzunari-suyo), grown in pots under controlled conditions, were treated by spraying of the leaves or by soil drenching with the mixture in question, dispersed in an aqueous solution. Plants were kept in a growth chamber at 25° C. and 80% RH. After 7 days, plants were inoculated and infected with a spore suspension of Podosphaera xanthii, and, 10 days after pathogen inoculation, infection levels were assessed and percentages of disease control and expected values were calculated according to Abbott's and Colby's formulas, respectively.

[4] = test system: Pyricularia oryzae on rice; details: soil drench
[5] = test system: Pseudomonas syringae pv. Lachrymans on cucumber; assay: Bacterial spot on cucumber, greenhouse disease control; details: spray, 100 ppm
Procedure: as §1, §2, §3, §4, §5
1.2-leaf stage cucumber plants (cv. Suzunari-suyo), grown in pots under controlled conditions, were treated by spraying of the leaves with the mixture in question, dispersed in an aqueous solution. After 2 days, plants were inoculated and infected with an aqueous suspension of Pseudomonas syringae pv. Lachrymans (1×10^8 cfu/ml), and they were kept in a growth chamber at 25° C. and 90% RH. 7 days after pathogen inoculation, infection levels were assessed and percentages of disease control and expected values were calculated according to Abbott's and Colby's formulas, respectively.

[6] = test system: Phakopsora pachyrhizi on soybean; assay: Asian rust on soybean, greenhouse disease control; details: B alone 100 ppm, leaf spray
Procedure: as §1, §2, §3
In order to evaluate if there is a synergistic effect between different possible combinations, Limpel/Colby's formula was used. This formula is used to calculated the expected disease control value of combinations containing two active ingredients, A and B: Expected (E)=A+B−(A×B/100) wherein, • A=observed disease control value of component A, at the same concentration as used in the mixture • B=observed disease control value of component B, at the same concentration as used in the mixture
When the disease control value found experimentally (observed) with the combination is greater than the value of E, said activity should be considered as being a synergistic effect, and Synergy Factor (F) is >1: Synergy Factor (F)=Observed disease control value/Expected disease control value (E)
As above, in the following Tables: • OV: Observed control value • CEV: Colby expected control value with the mixture [CEV=A+B−(A×B/100)] Synergy Factor (F)=OV(A+B)/CEV(A+B) 1. Podosphaera xanthii on Cucumber
1.5-leaf stage soybean plants (cv. Tsurunoko-daizu), grown in pots under controlled conditions, were treated by spraying of the leaves with the mixture in question, dispersed in an aqueous solution. After 7 days, plants were inoculated and infected with a spore suspension of Phakopsora pachyrhizi(1×10^6 uredospores/ml), and they were kept in a growth chamber at 25° C. and 90% RH. 10 days after pathogen inoculation, infection levels were assessed and percentages of disease control and expected values were calculated according to Abbott's and Colby's formulas, respectively.

[7] = test system: Pseudomonas cannbina pv. alisalensis on Chinese cabbage
[8] = test system: Colletotrichum orbiculare on cucumber; assay: Anthracnose on cucumber, greenhouse disease control; details: spray; 100 ppm
[9] = Test 4 (spray treatment), 100 ppm
[10] = Test 3 (soil drench treatment), 100 ppm
[11] = Combinations with Chitooligosaccharides

CC/C=C\CC1C(=O)CCC1CC(=O)OC (centres unmarked) [Methyl jasmonate, methyl jasmonate]
PR1 gene activation OV A or B (single component) ([1]; 600 ppm, 24 hpt): 1.10 n-fold
PR1 gene activation OV A or B (single component) ([1]; 600 ppm, 48 hpt): 36.36 n-fold
PDF1.2 gene activation OV A or B (single component) ([2]; 600 ppm, 24 hpt): 6.93 n-fold

Cc1ncc(C[n+]2csc(CCO)c2C)c(N)n1 [Vitamin B1, vitamin B1]
PR1 gene activation OV A or B (single component) ([1]; 8000 ppm, 24 hpt): 8.35 n-fold
PDF1.2 gene activation OV A or B (single component) ([2]; 8000 ppm, 24 hpt): 231.82 n-fold
PDF1.2 gene activation OV A or B (single component) ([2]; 8000 ppm, 48 hpt): 319.68 n-fold

O=C(O)c1ccccc1O [Salicylic acid, salicylic acid]
PR1 gene activation OV A or B (single component) ([1]; 100 ppm, 24 hpt): 87.08 n-fold
PR1 gene activation OV A or B (single component) ([1]; 100 ppm, 48 hpt): 58.77 n-fold
PDF1.2 gene activation OV A or B (single component) ([2]; 100 ppm, 24 hpt): 12.69 n-fold
PDF1.2 gene activation OV A or B (single component) ([2]; 100 ppm, 48 hpt): 7.80 n-fold

Cc1ccc(NC(=O)c2snnc2C)cc1Cl [Tiadinil, tiadinil]
Percentage of disease control OV A or B (single component) [3, 9]: 0%
Percentage of disease control B ([4]; Test 3, B alone 100 ppm): 80%
PDF1.2 gene activation OV A or B (single component) ([2]; 45 ppm, 24 hpt): 189.33 n-fold

C=CCOC1=NS(=O)(=O)c2ccccc21 [Probenazole]
Percentage of disease control OV A or B (single component) ([5]; Test 2): 45%
Percentage of disease control OV A or B (single component) ([5]; Test 3): 45%
Percentage of disease control OV A or B (single component) [3, 10]: 0%
Percentage of disease control B ([4]; Test 3, B alone 100 ppm): 71%
Percentage of disease control B ([4]; Test 4, B alone 100 ppm): 71%
PR1 gene activation OV A or B (single component) ([1]; 100 ppm, 48 hpt): 102.9 n-fold and 102.90 n-fold
Percentage of disease control B [6, 11]: 7%
Percentage of disease control B ([6]; Combinations with Laminarin): 7%
Percentage of disease control OV A or B (single component) ([7]; 100 ppm): 25%
Percentage of disease control B ([7]; in vivo): 25%

2-amino-3,5-dichlorobenzoic acid (3,5-dichloroanthranilic acid)
PR1 gene activation OV A or B (single component) ([1]; 25 ppm, 24 hpt): 4.61 n-fold
PR1 gene activation OV A or B (single component) ([1]; 25 ppm, 48 hpt): 4.14 n-fold
PDF1.2 gene activation OV A or B (single component) ([2]; 25 ppm, 48 hpt): 5.70 n-fold

CSC(=O)c1cccc2nnsc12 [Acibenzolar-S-methyl, acibenzolar-S-methyl]
Percentage of disease control OV A or B (single component) [8]: 92%
Percentage of disease control OV A or B (single component) ([5]; Test 4): 86%
Percentage of disease control B ([4]; Test 2, B alone 4 ppm): 29%
Percentage of disease control B ([4]; Test 2, B alone 10 ppm): 49%
Percentage of disease control B ([4]; Test 2, B alone 20 ppm): 87%
Percentage of disease control B ([4]; Test 2, B alone 40 ppm): 83%
Percentage of disease control B ([4]; Test 2, B alone 100 ppm): 70%
Percentage of disease control B ([4]; Test 3, B alone 100 ppm): 71%
Percentage of disease control B ([4]; Test 4, B alone 100 ppm): 71%
PR1 gene activation OV A or B (single component) ([1]; 37.5 ppm, 24 hpt): 32.19 n-fold
PR1 gene activation OV A or B (single component) ([1]; 37.5 ppm, 48 hpt): 72.31 n-fold
Percentage of disease control B ([7]; Combinations with Carrageenan, Test 1, B alone 100 ppm, leaf spray): 85%
Percentage of disease control B ([7]; Combinations with Chitooligosaccharides, Test 2, B alone 4 ppm, leaf spray): 5%
Percentage of disease control B ([7]; Combinations with Chitooligosaccharides, Test 2, B alone 10 ppm, leaf spray): 18%
Percentage of disease control B ([7]; Combinations with Chitooligosaccharides, Test 2, B alone 20 ppm, leaf spray): 12%
Percentage of disease control B ([7]; Combinations with Chitooligosaccharides, Test 2, B alone 40 ppm, leaf spray): 84%
Percentage of disease control B ([7]; Combinations with Chitooligosaccharides, Test 2, B alone 100 ppm, leaf spray): 89%
Percentage of disease control B ([7]; Combinations with Chitooligosaccharides, Test 3, B alone 10 ppm, leaf spray): 35%
Percentage of disease control B ([7]; Combinations with Chitooligosaccharides, Test 3, B alone 20 ppm, leaf spray): 17%
Percentage of disease control B ([7]; Combinations with Chitooligosaccharides, Test 3, B alone 40 ppm, leaf spray): 95%
Percentage of disease control B ([7]; Combinations with Chitooligosaccharides, Test 3, B alone 100 ppm, leaf spray): 98%

N#Cc1ccccc1NC(=O)c1snc(Cl)c1Cl [Isotianil, isotianil]
Percentage of disease control OV A or B (single component) [3, 9]: 10%
Percentage of disease control B ([4]; Test 3, B alone 100 ppm): 77%
Percentage of disease control B ([6]; Combinations with Carrageenan): 20%
Percentage of disease control B [6, 11]: 20%
Percentage of disease control B ([6]; Combinations with Laminarin): 20%
PDF1.2 gene activation OV A or B (single component) ([2]; 30 ppm, 24 hpt): 18.22 n-fold
PDF1.2 gene activation OV A or B (single component) ([2]; 30 ppm, 48 hpt): 57.21 n-fold

O=S1(=O)N=C(OCc2snc(Cl)c2Cl)c2ccccc21 [Dichlobentiazox]
Percentage of disease control OV A or B (single component) [3, 10]: 0%
Percentage of disease control B [6, 11]: 53%
Percentage of disease control OV A or B (single component) ([7]; 100 ppm): 0%
Percentage of disease control B ([7]; in vivo): 0%

O=C(O)c1cc(Cl)nc(Cl)c1 [2,6-Dichloroisonicotinic acid, 2,6-dichloro-isonicotinic acid]
PR1 gene activation OV A or B (single component) ([1]; 75 ppm, 24 hpt): 15.45 n-fold
PR1 gene activation OV A or B (single component) ([1]; 75 ppm, 48 hpt): 26.64 n-fold
Percentage of disease control OV A or B (single component) ([7]; 300 ppm): 83%
Percentage of disease control B ([7]; in vivo): 83%
PDF1.2 gene activation OV A or B (single component) ([2]; 75 ppm, 24 hpt): 5.13 n-fold
PDF1.2 gene activation OV A or B (single component) ([2]; 75 ppm, 48 hpt): 1.68 n-fold

Flagellin
PR1 gene activation OV A or B (single component) ([1]; 2.3 ppm, 24 hpt): 2.05 n-fold
PR1 gene activation OV A or B (single component) ([1]; 2.3 ppm, 48 hpt): 5.89 n-fold
PDF1.2 gene activation OV A or B (single component) ([2]; 2.3 ppm, 24 hpt): 1.44 n-fold
PDF1.2 gene activation OV A or B (single component) ([2]; 2.3 ppm, 48 hpt): 0.94 n-fold

CC(N)CC(=O)O (stereo not drawn) [Beta-Aminobutyric acid, beta-aminobutyric acid]
Percentage of disease control OV A or B (single component) ([3]; Test 4 (spray treatment), 300 ppm): 20%
Percentage of disease control B ([4]; Test 3, B alone 300 ppm): 0%
PR1 gene activation OV A or B (single component) ([1]; 100 ppm, 24 hpt): 2.53 n-fold
PR1 gene activation OV A or B (single component) ([1]; 100 ppm, 48 hpt): 8.50 n-fold
Percentage of disease control B [6, 11]: 0%
Percentage of disease control B ([7]; in vivo): 46%
PDF1.2 gene activation OV A or B (single component) ([2]; 100 ppm, 48 hpt): 4.37 n-fold

O=C(O)CCCCCCCC(=O)O [Azelaic acid, azelaic acid]
PDF1.2 gene activation OV A or B (single component) ([2]; 200 ppm, 24 hpt): 331.01 n-fold
PDF1.2 gene activation OV A or B (single component) ([2]; 200 ppm, 48 hpt): 87.56 n-fold
